What was measured:
[1] = tested on: human CD8 T cells bearing anti-mesothelin CAR; experiment: IL2 and IFNγ production in human anti-mesothelin CAR T cells stimulated with mesothelin-coated beads; type: cell-based; settings: lenalidomide 10 uM vs absence
[2] = tested on: human CD4 and CD8 T cells; experiment: IL2 and IFNγ production (flow cytometry) in human T cells stimulated with anti-CD3/anti-CD28 beads; type: cell-based; settings: lenalidomide 10 uM vs absence

## Nc1cccc2c1CN(C1CCC(=O)NC1=O)C2=O (stereo not drawn) [lenalidomide]
[1]
  IFNγ production in human CD8 T cells bearing anti-mesothelin CAR: increased both IL2 and IFNγ production
  IL2 production in human CD8 T cells bearing anti-mesothelin CAR: increased both IL2 and IFNγ production
[1]; listed as Lenalidomide
  IFNγ production in human CD8 T cells bearing anti-mesothelin CAR: augments IL2 and IFN levels
  IL2 production in human CD8 T cells bearing anti-mesothelin CAR: augments IL2 and IFN levels
[2]
  IFNγ production in human CD4+ T cells: increased IL2 and IFNγ production
  IFNγ production in human CD8+ T cells: increased IL2 and IFNγ production
  IL2 production in human CD4+ T cells: increased IL2 and IFNγ production
  IL2 production in human CD8+ T cells: increased IL2 and IFNγ production
[2]; listed as Lenalidomide
  IFNγ production in human CD4+ T cells: augments IL2 and IFN levels
  IFNγ production in human CD8+ T cells: augments IL2 and IFN levels
  IL2 production in human CD4+ T cells: augments IL2 and IFN levels
  IL2 production in human CD8+ T cells: augments IL2 and IFN levels
